Results taken from publication PMC7011974, “Benzimidazole derivatives endowed with potent antileishmanial activity” (Journal of Enzyme Inhibition and Medicinal Chemistry, 2017).
Like-named read-outs stand apart in the source and are kept apart here.

Legend:
[1] = system: L. tropica promastigotes; assay: Antileishmanial activity on L. tropica promastigotes (MTT); format: cell-based, Leishmania tropica; conditions: for IC50: Leishmania tropica, 72 h, read-out: IC50 (µM) L. tropica
[2] = system: L. infantum promastigotes; assay: Antileishmanial activity on L. infantum promastigotes (MTT); format: cell-based, Leishmania infantum; conditions: for IC50: Leishmania infantum, 72 h, read-out: IC50 (µM) L. infantum; for Fold more potent than miltefosine against L. infantum, taking the lowest literature IC50 (15 μM): miltefosine IC50 15 μM from literature
[3] = system: human microvascular endothelial cell line (HMEC-1); assay: Cytotoxicity on HMEC-1 cells (MTT); format: cell-based; conditions: for IC50: Homo sapiens, cytotoxicity, HMEC-1 cells, MTT; for Selectivity index (SI) range versus HMEC cells: range over L. tropica and L. infantum; for SI L. infantum (IC50 HMEC-1/IC50 L. infantum) / SI L. tropica (IC50 HMEC-1/IC50 L. tropica): selectivity index
[4] = Cytotoxicity on Vero-76 cells (crystal violet); conditions: monkey, Vero-76 cells
[5] = system: monkey kidney (Vero76) cells; assay: Cytotoxicity on Vero-76 cells (crystal violet)
[6] = system: intramacrophagic amastigote stage of L. infantum; assay: In vitro intracellular amastigote susceptibility assay in THP-1 macrophages; format: cell-based, Leishmania infantum
Protocol: (b) In vitro intracellular amastigote susceptibility assays. […] Cell monolayers were then washed and incubated with compounds for 72 h. Slides were fixed with methanol and stained with Giemsa. The percentage of infected macrophages in treated and non-treated cells was determined by light microscopy.

[7] = in vitro; conditions: monkey
[8] = system: promastigote stage of L. infantum; conditions: read-out: IC50 of miltefosine versus promastigote stage of L. infantum, literature, cited from earlier work
[9] = promastigotes, MTT, starred values mean of two experiments
[10] = fold potency versus miltefosine
[11] = percent of amphotericin B potency, calculated for each experiment

Row | SMILES | IC50 [1, 9] [µM] | Ratio IC50 miltef./IC50 compd., L. tropica [1, 10] | IC50 amph. B ×100/IC50 compd., L. tropica [1, 11] | IC50 ([2]; promastigotes, MTT) [µM] | IC50 [4] [µM] | SI L. infantum (IC50 Vero76/IC50 L. infantum) ([5]; selectivity index, Vero76) | SI L. tropica (IC50 Vero76/IC50 L. tropica) ([5]; selectivity index, Vero76) | IC50 amph. B ×100/IC50 compd., L. infantum [2, 11] | Ratio IC50 miltef./IC50 compd., L. infantum [2, 10] | other results
1 | CCCCCCCCCCCc1n(C)c2ccccc2[n+]1CCC.[I-] [Compound 4, 1-Methyl-3-propyl-2-undecyl-1 H-benzimidazol-3-ium iodide] | 0.46 | 94.0 | 17.9 | 0.27 ± 0.01 | 2.6 | 9.63 | 5.65 |  |  | melting point: 140.2 to 145 °C; Fold more potent than miltefosine against L. infantum, taking the lowest literature IC50 (15 μM) [2]: 55 fold; IC50 [3]: 2.01 ± 0.24 µM; Selectivity index (SI) range versus HMEC cells [3]: 2.3–7.4; SI L. infantum (IC50 HMEC-1/IC50 L. infantum) [3]: 7.44; SI L. tropica (IC50 HMEC-1/IC50 L. tropica) [3]: 4.37
2 | CCCCCCCCCCCCCCCc1n(C)c2ccccc2[n+]1C.[I-] [Compound 8, 1,3-Dimethyl-2-pentadecyl-1 H-benzimidazol-3-ium iodide] | 0.19 ± 0.06 |  |  | 0.34 ± 0.12 | 5.8 |  |  | 27.8 |  | melting point: 169 to 172 °C; Fold increased potency with respect to miltefosine, amastigotes ([6]; L. infantum amastigotes in THP-1): 3.35 fold; IC50 ([6]; Leishmania infantum, THP-1 macrophages, 72 h, read-out: IC50 against intramacrophagic amastigote stage of L. infantum): 0.313 µM; Fold more potent than miltefosine against L. infantum, taking the lowest literature IC50 (15 μM) [2]: 43 fold; IC50 [3]: 0.78 ± 0.06 µM; Selectivity index (SI) range versus HMEC cells [3]: 2.3–7.4; SI L. infantum (IC50 HMEC-1/IC50 L. infantum) [3]: 2.29; SI L. tropica (IC50 HMEC-1/IC50 L. tropica) [3]: 4.10
3 | CC(=O)c1ccc2c(c1)nc(Cc1ccc(Cl)cc1)n2C[C@@H]1CCCN2CCCC[C@H]12 [Compound 30] | 12.1 ± 4.06 | 3.6 | 1.46 | 15.9 ± 3.21 | > 100 | >6.30 | >8.24 | 1.32 | 2.0 | 
4 | O=[N+]([O-])c1ccc2c(c1)nc(Cc1ccccc1)n2C[C@@H]1CCCN2CCCC[C@H]12 [Compound 32] |  |  |  |  |  |  |  |  |  | IC50 amph. B ×100/IC50 compd., L. tropica [1]: 1.43; Ratio IC50 miltef./IC50 compd., L. tropica [1]: 6.0; IC50 [1]: 7.22 ± 3.13 µM; IC50 amph. B ×100/IC50 compd., L. infantum [2]: 1.24; Ratio IC50 miltef./IC50 compd., L. infantum [2]: 3.3; IC50 [2]: 9.55 ± 3.11 µM; IC50 [7]: 50 µM; SI L. infantum (IC50 Vero76/IC50 L. infantum) [5]: 5.23; SI L. tropica (IC50 Vero76/IC50 L. tropica) [5]: 6.93
5 | O=[N+]([O-])c1ccc2c(c1)nc(Cc1ccc(Cl)cc1)n2C[C@@H]1CCCN2CCCC[C@H]12 [Compound 33] |  |  |  |  |  |  |  |  |  | IC50 amph. B ×100/IC50 compd., L. tropica [1]: 2.63; Ratio IC50 miltef./IC50 compd., L. tropica [1]: 11.0; IC50 [1]: 3.92 ± 1.43 µM; IC50 amph. B ×100/IC50 compd., L. infantum [2]: 1.73; Ratio IC50 miltef./IC50 compd., L. infantum [2]: 4.6; IC50 [2]: 6.82 ± 1.25 µM; IC50 [7]: 68 µM; SI L. infantum (IC50 Vero76/IC50 L. infantum) [5]: 9.97; SI L. tropica (IC50 Vero76/IC50 L. tropica) [5]: 17.35
6 | COc1ccc(Cc2nc3cc([N+](=O)[O-])ccc3n2C[C@@H]2CCCN3CCCC[C@H]23)cc1 [Compound 34] |  |  |  |  |  |  |  |  |  | IC50 amph. B ×100/IC50 compd., L. tropica [1]: 2.99; Ratio IC50 miltef./IC50 compd., L. tropica [1]: 12.6; IC50 [1]: 3.44 ± 1.43 µM; IC50 amph. B ×100/IC50 compd., L. infantum [2]: 1.77; Ratio IC50 miltef./IC50 compd., L. infantum [2]: 4.7; IC50 [2]: 6.68 ± 1.74 µM; IC50 [7]: 49 µM; SI L. infantum (IC50 Vero76/IC50 L. infantum) [5]: 7.33; SI L. tropica (IC50 Vero76/IC50 L. tropica) [5]: 14.24
7 | FC(F)(F)c1ccc2c(c1)nc(-c1ccccc1)n2C[C@@H]1CCCN2CCCC[C@H]12 [Compound 35] | 7.31 ± 2.75 | 5.9 | 2.42 | 12.1 ± 1.82 | 90 | 7.44 | 12.3 | 1.73 | 2.6 | 
8 | FC(F)(F)c1ccc2c(c1)nc(-c1ccc(Cl)cc1)n2C[C@@H]1CCCN2CCCC[C@H]12 [Compound 36, N-lupinyl-5-trifluoromethyl-2-(4-chlorophenyl)benzimidazole] | 12.6 ± 4.54 | 3.4 | 0.69 | 12.5 ± 3.51 | 24 | 1.92 | 1.90 | 0.95 | 2.5 | 
9 | Oc1ccc(-c2nc3cc(C(F)(F)F)ccc3n2C[C@@H]2CCCN3CCCC[C@H]23)cc1 [Compound 37] | 13.5 ± 2.21 | 3.2 | 1.31 | 17.4 ± 1.49 | 78 | 4.49 | 5.76 | 1.20 | 1.8 | 
10 | COc1ccc(-c2nc3cc(C(F)(F)F)ccc3n2C[C@@H]2CCCN3CCCC[C@H]23)cc1 [Compound 38] | 6.54 ± 0.18 | 6.6 | 2.71 | 11.2 ± 1.33 | 75 | 6.68 | 11.47 | 1.86 | 2.8 | 
11 | CCCCCCCCCCCCCCCCOP(=O)([O-])OCC[N+](C)(C)C [Miltefosine, miltefosine, reference compound] | 43 | 1.0 | 0.26 | 31.3 ± 10.4 |  |  |  | 0.27 | 1.0 | IC50 [3]: 99.8 µM; SI L. infantum (IC50 HMEC-1/IC50 L. infantum) [3]: 3.2; IC50 ([8]; ref 6c): 16.7 µM; IC50 ([8]; ref 11a): 15 µM; IC50 ([8]; ref 13b): 19.6 µM
